Reference: paper PMC8319603, “Developing C2-Aroyl Indoles as Novel Inhibitors of IDO1 and Understanding Their Mechanism of Inhibition via Mass Spectroscopy, QM/MM Calculations and Molecular Dynamics Simulation” (Frontiers in Chemistry, 2021)
pIC50: −log10 of the molar value. Converted amounts (≈) assume the structure as drawn. Where two headings read alike, the source gives them in different places.

Columns and labels:
[1] = biological target: T1, recombinant protein of human IDO1 enzyme (Homo sapiens, UniProt P14902); experiment: IDO1 enzymatic assay in vitro (kynurenine formation, absorbance 492 nm); assay type: biochemical; details: for pIC50: read-out: IC50 against IDO1
T1 construct: purchased Biovision P1096
T1 sequence (P14902 whole entry): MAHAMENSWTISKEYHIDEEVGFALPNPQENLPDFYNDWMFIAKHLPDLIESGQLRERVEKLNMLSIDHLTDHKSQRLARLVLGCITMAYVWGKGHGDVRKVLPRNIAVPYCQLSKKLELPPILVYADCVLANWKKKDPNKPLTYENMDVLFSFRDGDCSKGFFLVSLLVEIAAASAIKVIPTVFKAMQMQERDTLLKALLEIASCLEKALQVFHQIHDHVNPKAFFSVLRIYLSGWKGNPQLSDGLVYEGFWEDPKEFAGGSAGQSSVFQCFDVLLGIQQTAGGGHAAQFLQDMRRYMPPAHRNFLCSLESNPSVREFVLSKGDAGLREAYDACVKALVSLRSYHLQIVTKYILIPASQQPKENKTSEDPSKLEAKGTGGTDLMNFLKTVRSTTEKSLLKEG
Protocol: The recombinant human IDO/TDO protein were purchased from Biovision (Catalog no.: P1096 human recombinant IDO1 and CSB-YP023351HU human recombinant TDO2). All the other HPLC grade solvent were purchased from Merck Pvt. Ltd. The IDO/TDO assays were performed according to the reported procedures.1 and 2, the details of which is mentioned in the SI.
20 µL of IDO1/TDO2 protein (1µg/ml concentration) was added and incubates for 10 min. After that 20 µL of 2 mM L-tryptophan was added and then treated with different test compounds concentration […]
The plate was then sealed well for 2hr incubation process at 37°C. After incubation, 40 µL of 30% TCA solution was added and again incubated for 15 min at 60 °C, the samples were centrifuged for 15 min at 13000 rpm at 4 °C. The 100 µL of supernatant was transferred in fresh 96 well plate and treated with 100 µL of freshly prepared 2% Ehlrich reagent which was then analyzed by absorbance plate reader at 492 nm to measure the extent of kynurenine formation. The DMSO content in the sample was 0.005 %. The final concentration of the compound in deep well plate was 5 µM. The IC50 values were calculated in triplicate by using GraphPadPrism […]
1. Water was substituted with L-tryphtophan
2. Water was substituted with L-tryhtophan and rhIDO/ rhTDO protein.
A = IDO activity in presence of inhibitor

Kinetic solubility = assay type: physicochemical; details: for solubility kinetic at 18 h: phosphate buffered saline, aqueous buffer, kinetic from dmso stock, at 1 mg/ml in phosphate buffer at pH 7.4, read-out: Kinetic solubility of the compounds
Source text: (§1) For the DMPK studies of the compound 8a-d we used rat as well as human plasmas. Rat plasma was purchased from Hylasco Biotechnology Pvt. Ltd.™ Hyderabad, India. We have not performed any in vivo experiments for this manuscript neither for animals nor for humans. […] Also please note the blood plasma was obtained from the blood of Dr Srinivas R Maddi, who donated it and is the co-author of this article. The DMPK studies were supplemented by kinetic solubility, Log p and Log D determinations, PAMPA permeability, Metabolic and Plasma stability in rat and human, and finally the plasma folding in rat and human. A thorough discussion of each step is mentioned in the supplementary information. […]
Kinetic solubility: Solubility of the compounds was dete rmined by incubating the compound at 500
µM concentration in phosphate buffer saline, pH7.4 for 18 hours with constant vortex at 500 rpm.
After incubation period, samples were centrifuged and supernatant was injected into HPLC to
determine the solubility. […]

[2] = Log P determination (octanol/water); assay type: physicochemical
Source text: as §1
Octanol and buffer layers were analysed by HPLC -UV by
adjusting the needle height for each Octanol and buffer and the amount of compound distributed i nto

[3] = Stability in human plasma; assay type: in vitro ADME
Source text: as §1
(§2) Stability in rat and human plasma: Plasma stability is defined as the percentage of parent compound lost over time. The frozen plasma was thawed at room temperature and centrifuged at 1400 rpm 4 ℃, for 15 minutes. Approximately 90% of the clear supernatant fraction was transferred to a separate tube and was used for assay. The incubation mixtures consisted of human and rat palsma and compound (1 μM) or positive control (propanthelin, 1 μM) and incubated for 120 min at 37℃ in shaker with 500 rpm. All reactions were terminated using 200 μL of ice-cold acetonitrile containing internal standard (150 ng/mL of telmisartan) at 0, 15, 30, 60 and 120 min and centrifuged at 4000 rpm (Eppendorf, Germany) for 20min. The supernatants thus obtained were analyzed on LC-MS/MS to monitor the disappearance of compound. […]

Stability in rat plasma = assay type: in vitro ADME
Source text: as §1, §2

[4] = Metabolic stability in dog liver microsomes; assay type: in vitro ADME
[5] = Metabolic stability in monkey liver microsomes; assay type: in vitro ADME
[6] = recombinant human IDO1, dose response study

## COC(=O)NCCc1c(C(=O)c2ccccc2)[nH]c2ccccc12 [8e]
[1]; [6]
  pIC50: 5.82
Kinetic solubility
  Solubility: very good
  solubility kinetic at 18 h: 67.4 µg/mL (≈ 209 µM)
[2]
  logP: 2.88
[3]
  Human plasma stability %Ge remaining after 120 min: 108.3%
Stability in rat plasma
  Rat plasma stability %Ge remaining after 120 min: 96.3%
[4]
  Dog liver microsomal stability % QH (hepatic extraction ratio): 67%
[5]
  Monkey liver microsomal stability % QH (hepatic extraction ratio): 96%

## CC(=O)NCCc1c(C(=O)c2ccc([N+](=O)[O-])cc2)[nH]c2ccccc12 [8d]
[1]; IDO vs TDO
  Selectivity for IDO over TDO: reasonable selectivity
[1]; recombinant human IDO1
  pIC50: 6.74
Kinetic solubility
  Solubility: very good
  solubility kinetic at 18 h: 56.9 µg/mL (≈ 162 µM)
[2]
  logP: 2.67
[3]
  Human plasma stability %Ge remaining after 120 min: 85.0%
Stability in rat plasma
  Rat plasma stability %Ge remaining after 120 min: 91.3%
[4]
  Dog liver microsomal stability % QH (hepatic extraction ratio): 39%
[5]
  Monkey liver microsomal stability % QH (hepatic extraction ratio): 74%

## CC(=O)NCCc1c(C(=O)c2cc(C(F)(F)F)cc(C(F)(F)F)c2)[nH]c2ccccc12 [8a]
[1]; 5 μM concentration of compound, 5 µM
  Percentage inhibition of IDO1: 37%
[1]; 5 μM concentration of compound, read-out: Percentage inhibition of IDO1
  inhibition at 5 µM: ~40%
[1]; [6]
  pIC50: 5.84
Kinetic solubility
  Solubility: very good
  solubility kinetic at 18 h: 64.1 µg/mL (≈ 145 µM)
[2]
  logP: > 3.5
[3]
  Human plasma stability %Ge remaining after 120 min: 84.5%
Stability in rat plasma
  Rat plasma stability %Ge remaining after 120 min: 84.5%
[4]
  Dog liver microsomal stability % QH (hepatic extraction ratio): 69%
[5]
  Monkey liver microsomal stability % QH (hepatic extraction ratio): 97%
